Reference: US20020082263A1, “Heterocycle derivatives as PPAR-gamma agonists” (priority 2000, published 2002)
pEC50: −log10 of the molar value.

Tests used:
PPAR-gamma = biological target: T1, PPAR-gamma (Homo sapiens, UniProt P37231); assay: Reporter gene assay in transfected HepG2 cells: transcriptional activation of a PPRE via a PPAR-gamma mediated pathway; format: cell-based; details: transfected human hepatoma (HepG2) cells, 36-48 h exposure, reporter gene activity
T1 construct: host or cells: HepG2 (human hepatoma), transfected
T1 sequence (P37231 1-505): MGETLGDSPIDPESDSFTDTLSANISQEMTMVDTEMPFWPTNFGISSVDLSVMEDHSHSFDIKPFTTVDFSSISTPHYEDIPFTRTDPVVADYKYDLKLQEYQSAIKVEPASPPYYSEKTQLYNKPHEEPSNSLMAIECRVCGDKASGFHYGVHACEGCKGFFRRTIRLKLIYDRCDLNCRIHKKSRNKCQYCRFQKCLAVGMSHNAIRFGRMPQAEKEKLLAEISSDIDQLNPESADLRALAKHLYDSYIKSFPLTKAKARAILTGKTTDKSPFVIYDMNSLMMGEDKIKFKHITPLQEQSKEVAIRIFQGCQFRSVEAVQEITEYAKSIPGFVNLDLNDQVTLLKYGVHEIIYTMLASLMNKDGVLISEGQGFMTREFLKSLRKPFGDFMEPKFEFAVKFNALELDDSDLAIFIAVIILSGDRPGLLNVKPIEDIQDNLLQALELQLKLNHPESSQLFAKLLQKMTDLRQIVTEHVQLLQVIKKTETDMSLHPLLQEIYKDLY
Description: A reporter gene assay utilizing transfected human hepatoma (HepG2) cells is used to screen for compounds that transcriptionally activate a PPRE via a PPAR-gamma mediated pathway. Cells are exposed to experimental compounds dissolved in DMSO for 36-48 h prior to determination of reporter gene activity. 15dPGJ2 (2 μM) is used as positive control and vehicle (DMSO) is used as a negative control.

[1] = tested on: db/db mice (C578BL/KsJ-db/db Jcl); assay: Effect on serum glucose and serum insulin in db/db mice; format: in vivo, mouse; details: oral; for Serum Glucose (% reduction) / Serum Insulin (% reduction): blood 1.5 h after last dose vs pretreatment blood, mean ± SEM
Description: Compounds prepared in accordance with Examples 8 and 36 were evaluated for their effect on serum glucose and serum insulin in db/db mice (C578BL/KsJ-db/db Jcl). The compounds were dissolved in a vehicle consisting of 2% Tween80 in distilled water and administered orally. Dosage volume was 10 ml/kg body weight. All aspects of the work including experimentation and disposal of the animals was performed in general accordance with the International Guiding Principles for Biomedical Research Involving Animals (CIOMS Publication No. ISBN 92 90360194, 1985). Glucose-HA Assay kits (Wako, Japan) were used for determination of serum glucose and ELISA Mouse Insulin Assay kits (SPI bio, France) were utilized for determination of insulin. The positive control was troglitazone (Helios Pharmaceutical, Louisville, Ky.).
The animals were divided into twenty groups of four animals each. The animals weighed 52±5 gms at age 8-10 weeks. During the experiment the animals were provided free access to laboratory chow (Fwusow Industry Co., Taiwan) and water
Prior to any treatment a blood sample (pretreatment blood) was taken from each animal. Four groups of animals, the vehicle groups, received only doses of the vehicle. Each of the vehicle groups received of 100, 30, 10 or 1 ml/kg body weight of the vehicle orally. […] The compound of Example 8 was administered orally as a solution (10 ml/kg body weight in tween 80/water) to four groups of animals with each group receiving a different dose of the compound. The dosage rates were […] body weight with only one dosage rate administered to each group. […] The vehicle, positive control and test compound solutions were administered to the groups immediately, 24 hours and 48 hours after drawing the pretreatment blood. Blood was withdrawn (post treatment blood) 1.5 hours after administration of the last dose.
The serum glucose levels of the blood samples was determined enzymatically (Mutaratose-GOD) and the insulin levels by ELISA (mouse insulin assay kit). The mean ±SEM of each group was calculated and the percent inhibition of serum glucose and insulin was obtained by comparison between pretreatment blood and post treatment blood. The percentage of reduction of the serum glucose and insulin levels in the post treatment blood relative to the pretreatment blood was determined and the Unpaired students t test was applied for the comparison between the control and test solution groups and the vehicle group. A significant difference was considered at P<0.05.

[2] = 100 mg/kg body weight, P<0.01, unpaired t test

CCNC(=O)CC1CN(Cc2cc(OC)cc(OC)c2)C(=O)[C@H](CC(C)C)N1C(=O)NC1CCCCC1 (stereo partly drawn) [Example 42, N-Ethyl[1-cyclohexylcarbamoyl-4-(3,5-dimethoxybenzyl)-6-(S)-isobutyl-5-oxo-piperazin-2-yl]-acetamide]
pEC50 (PPAR-gamma): 6.60

CNC(=O)CC1CN(Cc2cc(OC)cc(OC)c2)C(=O)[C@H](CC(C)C)N1C(=O)NC1CCCCC1 (stereo partly drawn) [Example 32, N-Methyl[1-cyclohexylcarbamoyl-4-(3,5-dimethoxybenzyl)-6-(S)-isobutyl-5-oxo-piperazin-2-yl]-acetamide]
pEC50 (PPAR-gamma): 6.21

CCCCNC(=O)C[C@@H]1CN(Cc2cc(OC)cc(OC)c2)C(=O)[C@H](CC(C)C)N1C(=O)NC1CCCCC1 [Example 36, N-Butyl (R)-[1-cyclohexylcarbamoyl-4-(3 5-dimethoxybenzyl)-6-(S)-isobutyl-5-oxo-piperazin-2-yl]-acetamide]
Serum Glucose (% reduction) ([1]; 1 mg/kg at 0, 24 and 48 h): −1 ± 2%
Serum Insulin (% reduction) ([1]; 1 mg/kg at 0, 24 and 48 h): 8 ± 7%
Serum Glucose (% reduction) ([1]; 3 mg/kg at 0, 24 and 48 h): 0 ± 2%
Serum Insulin (% reduction) ([1]; 3 mg/kg at 0, 24 and 48 h): −9 ± 2%
Serum Glucose (% reduction) ([1]; 10 mg/kg at 0, 24 and 48 h): −4 ± 7%
Serum Insulin (% reduction) ([1]; 10 mg/kg at 0, 24 and 48 h): −9 ± 6%
Serum Glucose (% reduction) ([1]; 30 mg/kg at 0, 24 and 48 h): 37 ± 8%
Serum Insulin (% reduction) ([1]; 30 mg/kg at 0, 24 and 48 h): 1 ± 2%
reduction of serum glucose relative to the vehicle treated groups (in words) ([1]; 30 mg/kg body weight, P<0.05, unpaired t test): significant reduction
Serum Glucose (% reduction) ([1]; 100 mg/kg at 0, 24 and 48 h): 40 ± 7%
Serum Insulin (% reduction) ([1]; 100 mg/kg at 0, 24 and 48 h): 2 ± 4%
reduction of serum glucose relative to the vehicle treated groups (in words) [1, 2]: significant reduction

CCCC[C@H]1C(=O)N(Cc2cc(OC)cc(OC)c2)CC(CC(=O)NC)N1C(=O)NC1CCCCC1 (stereo partly drawn) [Example 41, N-Methyl[1-cyclohexylcarbamoyl-4-(3,5-dimethoxybenzyl)-6-(S)-butyl-5-oxo-piperazin-2-yl]-acetamide]
pEC50 (PPAR-gamma): 5.63

COc1cc(CN2C[C@@H](CC(=O)NCC3CCCO3)N(C(=O)NC3CCCCC3)[C@@H](CC(C)C)C2=O)cc(OC)c1 (stereo partly drawn) [Example 8, N-Tetrahydrofurfuryl (R)-[1-cyclohexylcarbamoyl-4-(3,5-dimethoxybenzyl)-6-(S)-isobutyl-5-oxo-piperazin-2-yl]-acetamide]
Serum Glucose (% reduction) ([1]; 1 mg/kg at 0, 24 and 48 h): 9 ± 8%
Serum Insulin (% reduction) ([1]; 1 mg/kg at 0, 24 and 48 h): 3 ± 7%
Serum Glucose (% reduction) ([1]; 3 mg/kg at 0, 24 and 48 h): −1 ± 3%
Serum Insulin (% reduction) ([1]; 3 mg/kg at 0, 24 and 48 h): −7 ± 3%
Serum Glucose (% reduction) ([1]; 10 mg/kg at 0, 24 and 48 h): 18 ± 6%
Serum Insulin (% reduction) ([1]; 10 mg/kg at 0, 24 and 48 h): 1 ± 4%
Serum Glucose (% reduction) ([1]; 30 mg/kg at 0, 24 and 48 h): 14 ± 2%
Serum Insulin (% reduction) ([1]; 30 mg/kg at 0, 24 and 48 h): 5 ± 4%
Serum Glucose (% reduction) ([1]; 100 mg/kg at 0, 24 and 48 h): 41 ± 6%
Serum Insulin (% reduction) ([1]; 100 mg/kg at 0, 24 and 48 h): 6 ± 2.5%
reduction of serum glucose relative to the vehicle treated groups (in words) [1, 2]: significant reduction

Cc1c(C)c2c(c(C)c1O)CCC(C)(COc1ccc(CC3SC(=O)NC3=O)cc1)O2 (centres unmarked) [troglitazone, reference compound]
Serum Glucose (% reduction) ([1]; 10 mg/kg at 0, 24 and 48 h): 25±2%

CCCCNC(=O)CC1CN(Cc2cc(OC)cc(OC)c2)C(=O)[C@H](CC(C)C)N1C(=O)NC1CCCCC1 (stereo partly drawn) [Example 35, N-Butyl[1-cyclohexylcarbamoyl-4-(3 ,5-dimethoxybenzyl)-6-(S)-isobutyl-5-oxo-piperazin-2-yl]-acetamide]
pEC50 (PPAR-gamma): 6.92

COc1cc(CN2CC(CC(=O)NCCO)N(C(=O)NC3CCCCC3)[C@@H](CC(C)C)C2=O)cc(OC)c1 (stereo partly drawn) [Example 43, N-(2-Hydroxyethyl)[1-cyclohexylcarbamoyl-4-(3,5-dimethoxybenzyl)-6-(S)-isobutyl-5-oxo-piperazin-2-yl]-acetamide]
pEC50 (PPAR-gamma): < 6.00
